Structures can show the parent of a compound that is named as a salt. Where two headings read alike, the source gives them in different places.
Columns and labels:
PDGFRβ = target: T1, PDGFRβ (Homo sapiens, UniProt P09619); test: Competition binding assay, PDGFRβ Kd
T1 construct: made in house
In short: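 Read-out is quantitative PCR of kinase recovered from affinity beads after competition with test compound. Binding reached equilibrium over 1 hour at room temperature; Kd values come from eleven-point threefold serial dilutions.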

CSF1R = CSF1R (Homo sapiens, UniProt P07333); test: HEK293 CSF1R phosphorylation MSD assay; format: cell-based; design: expressed in transfected cells; host or cells: HEK293; details: read-out: HEK293 pCSF1R M-CSF MSD:IC50
In short: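 Ligand-induced CSF1R autophosphorylation was measured by MSD sandwich assay: CSF1R-FKBP from lysates captured via FK506, anti-phosphotyrosine readout. Cells were exposed to compound for 2 h (9-point, half-log, 0.5% DMSO) before 5 min 50 ng/mL M-CSF. Reported IC50 is the mean of duplicate-plate IC50s relative to DMSO control.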

[1] = HEK293 cells, M-CSF stimulated CSF1R phosphorylation, MSD
[2] = 2 h compound, human M-CSF 50 ng/mL for 5 min

Chain of CSF1R (P07333 20-972): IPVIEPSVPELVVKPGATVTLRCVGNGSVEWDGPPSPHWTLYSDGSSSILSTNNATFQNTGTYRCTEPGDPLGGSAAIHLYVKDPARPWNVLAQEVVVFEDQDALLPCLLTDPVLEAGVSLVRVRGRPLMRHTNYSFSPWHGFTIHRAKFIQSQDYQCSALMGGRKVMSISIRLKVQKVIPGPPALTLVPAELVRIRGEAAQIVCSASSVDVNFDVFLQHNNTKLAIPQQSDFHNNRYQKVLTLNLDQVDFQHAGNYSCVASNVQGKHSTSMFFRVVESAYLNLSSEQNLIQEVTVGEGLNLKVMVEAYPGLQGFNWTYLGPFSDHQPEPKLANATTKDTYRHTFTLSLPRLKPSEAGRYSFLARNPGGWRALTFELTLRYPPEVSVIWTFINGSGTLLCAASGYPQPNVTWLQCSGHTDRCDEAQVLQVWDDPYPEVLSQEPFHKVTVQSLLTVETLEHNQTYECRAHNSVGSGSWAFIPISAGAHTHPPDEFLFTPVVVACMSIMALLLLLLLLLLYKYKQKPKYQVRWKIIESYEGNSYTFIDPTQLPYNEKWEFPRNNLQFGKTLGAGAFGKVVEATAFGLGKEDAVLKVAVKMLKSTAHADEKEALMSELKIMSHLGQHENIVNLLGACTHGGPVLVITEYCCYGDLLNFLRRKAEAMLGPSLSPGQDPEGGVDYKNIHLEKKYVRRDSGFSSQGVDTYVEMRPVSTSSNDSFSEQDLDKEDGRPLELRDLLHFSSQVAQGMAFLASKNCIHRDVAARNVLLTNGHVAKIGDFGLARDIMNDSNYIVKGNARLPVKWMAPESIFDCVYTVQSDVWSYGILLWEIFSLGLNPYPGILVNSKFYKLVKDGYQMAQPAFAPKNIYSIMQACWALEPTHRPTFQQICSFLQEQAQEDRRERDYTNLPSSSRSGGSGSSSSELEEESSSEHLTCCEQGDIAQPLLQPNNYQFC
T1 sequence (P09619 33-1106): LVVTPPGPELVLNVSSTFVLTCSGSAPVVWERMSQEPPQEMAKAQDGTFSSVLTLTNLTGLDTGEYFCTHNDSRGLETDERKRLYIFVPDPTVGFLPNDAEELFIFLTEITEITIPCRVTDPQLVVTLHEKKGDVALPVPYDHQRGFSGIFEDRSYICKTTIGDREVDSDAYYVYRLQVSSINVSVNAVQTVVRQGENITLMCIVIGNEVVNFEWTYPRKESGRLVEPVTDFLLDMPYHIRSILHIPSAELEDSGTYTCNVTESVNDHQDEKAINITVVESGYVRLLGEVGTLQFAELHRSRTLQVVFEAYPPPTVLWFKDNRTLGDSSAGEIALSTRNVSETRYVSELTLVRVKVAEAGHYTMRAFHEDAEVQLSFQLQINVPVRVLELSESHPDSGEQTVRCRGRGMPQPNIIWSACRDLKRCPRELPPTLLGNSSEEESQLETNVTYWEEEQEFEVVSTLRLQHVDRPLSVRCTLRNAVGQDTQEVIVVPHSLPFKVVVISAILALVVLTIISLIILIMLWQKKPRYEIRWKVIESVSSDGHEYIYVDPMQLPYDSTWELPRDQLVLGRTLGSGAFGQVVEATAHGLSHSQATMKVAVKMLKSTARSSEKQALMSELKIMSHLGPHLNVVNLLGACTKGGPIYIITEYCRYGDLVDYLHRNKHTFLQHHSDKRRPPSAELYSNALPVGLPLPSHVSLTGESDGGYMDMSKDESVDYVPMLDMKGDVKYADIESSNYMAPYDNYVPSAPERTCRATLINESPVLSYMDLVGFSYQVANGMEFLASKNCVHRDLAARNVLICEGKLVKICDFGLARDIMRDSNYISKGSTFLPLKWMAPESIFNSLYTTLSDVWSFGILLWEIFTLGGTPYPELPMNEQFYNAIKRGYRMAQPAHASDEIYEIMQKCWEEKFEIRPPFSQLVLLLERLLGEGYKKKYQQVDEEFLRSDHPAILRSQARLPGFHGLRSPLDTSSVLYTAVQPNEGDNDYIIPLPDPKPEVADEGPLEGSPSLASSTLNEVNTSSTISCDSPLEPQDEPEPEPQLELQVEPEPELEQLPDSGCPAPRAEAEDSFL

Kd (PDGFRβ; competition binding) [µM]	IC50 (CSF1R; [1]) [µM]	Compound	Kd (PDGFRβ) [µM]	IC50 (CSF1R; [2]) [µM]
0.05 to 0.5	0.05 to 0.2	C=CCOc1ccn2c(Cc3ccc4nc(N[C@@H]5CCCC[C@H]5O)sc4c3)cnc2c1 [Example 217, (1R,2R)-2-((6-((7-(allyloxy)imidazo[1,2-a]pyridin-3-yl)methyl)benzo[d]thiazol-2-yl)amino)cyclohexanol]		
0.05 to 0.5	≤ 0.05	O[C@@H]1CCCC[C@H]1Nc1nc2ccc(Cc3cnc4cc(-n5ccnn5)ccn34)cc2s1 [Example 218, (1R,2R)-2-((6-((7-(1H-1,2,3-triazol-1-yl)imidazo[1,2-a]pyridin-3-yl)methyl)benzo[d]thiazol-2-yl)amino)cyclohexanol]		
≤ 0.05	0.05 to 0.2	Fc1cnc2c(c1)ncn2Cc1ccc2nc(N[C@@H]3CCCC[C@@H]3Cl)sc2c1 [Example 219, N-((1R,2S)-2-chlorocyclohexyl)-6-((6-fluoro-3H-imidazo[4,5-b]pyridin-3-yl)methyl)benzo[d]thiazol-2-amine]		
0.05 to 0.5	> 0.5	Nc1nccn(Cc2ccc3nc(N[C@@H]4CCCC[C@H]4O)sc3c2)c1=O [Example 220, 3-amino-1-((2-(((1R,2R)-2-hydroxycyclohexyl)amino)benzo[d]thiazol-6-yl)methyl)pyrazin-2(1H)-one acetate salt]		

Continued, compound first:

Compound	Kd (PDGFRβ; competition binding) [µM]	IC50 (CSF1R; [1]) [µM]	Kd (PDGFRβ) [µM]	IC50 (CSF1R; [2]) [µM]
either (1R,2R)-1-((6-((4-(1-methyl-1H-pyrazol-4-yl)-1H-imidazol-1-yl)methyl)benzo[d]thiazol-2-yl)amino)-2,3-dihydro-1H-inden-2-ol or (1R,2R)-1-((6-((5-(1-methyl-1H-pyrazol-4-yl)-1H-imidazol-1-yl)methyl)benzo[d]thiazol-2-yl)amino)-2,3-dihydro-1H-inden-2-ol [Example 83]			0.05 to 0.5	0.05 to 0.2
either (1R,2R)-2-((6-((3H-imidazo[4,5-b]pyridin-3-yl)methyl)benzo[d]thiazol-2-yl)amino)-1-methylcyclohexanol or (1S,2R)-2-((6-((3H-imidazo[4,5-b]pyridin-3-yl)methyl)benzo[d]thiazol-2-yl)amino)-1-methylcyclohexanol [Example 60]			≤ 0.05	0.05 to 0.2
either (1S,2R)-2-((6-((3H-imidazo[4,5-b]pyridin-3-yl)methyl)benzo[d]thiazol-2-yl)amino)-1-methylcyclohexanol or (1R,2R)-2-((6-((3H-imidazo[4,5-b]pyridin-3-yl)methyl)benzo[d]thiazol-2-yl)amino)-1-methylcyclohexanol [Example 59]			0.05 to 0.5	0.05 to 0.2
